Reference: patent publication US20250145637A1, “SULFONAMIDE DERIVATIVE, PREPARATION METHOD THEREFOR AND MEDICAL USE THEREOF” (Jiangsu Hengrui Pharmaceuticals Co. Ltd., priority 2021, published 2025)

How the values were obtained:
[1] = molecular target: human KAT6B (Homo sapiens (Human), UniProt Q8WYB5); assay: KAT6B enzyme activity assay (AlphaScreen method); format: biochemical; details: inhibition of the enzyme human KAT6B
Text: Test Example 2: KAT6B Enzyme Activity Assay (AlphaScreen Method)
I. Reagents and Instrument
• 1. KAT6B (718-1008) (ActiveMotif, 81224) • 2. Bovine serum albumin (Sangon, A500023-0100) • 3. 2 M Tris-HCl solution, pH 7.8, sterile (Sangon, B548140-0500) • 4. EDTA (0.5 M), pH 8. 0, RNase-free (Thermofisher, AiM9260G) • 5. Tween-20 (Sangon, A100777-0500) • 6. DTT, 1 M (Invitrogen, P2325) • 7. Acetyl coenzyme A (Ac-CoA, CAYMAN, Cat. No. 16160) • 8. Recombinant histone H3.1 biotinylated (human) (Active Motif 31696) • 9. 384-well plate, light gray (Perkin Elmer, Cat. No. 6007290) • 10. Anacardic acid (MCE, Cat. No. HY—N2020) • 11. AlphaScreen streptavidin donor beads, 5 mg (PerkinElmer, 6760002) • 12. AlphaScreen protein A acceptor beads, 5 mg (PerkinElmer, 6760137M) • 13. Acetylated-lysine antibody #9441 (CST 9441S) • 14. DMSO (Tansoole, G7592B) • 15. PHERA star microplate reader (BMG labtech)
a. 1× buffer 2: 50 mM Tris-HCl, pH 7.8; 0.1 mM EDTA; 0.01% v/v tween-20; 1 mM DTT; 0.01% m/v bovine serum albumin.
b. KAT6B enzyme solution: 3 nM (final concentration), prepared in buffer 2.
c. Mixed substrate of Ac-CoA and H3: a mixed substrate of 30 nM (final concentration) Ac-CoA and 30 nM (final concentration) H3, prepared in buffer 2.
d. Compounds: initial concentration of 10 mM, 4-fold dilution, 10 gradient concentrations. All compound concentrations were diluted 2500-fold with buffer 2 for later use.
e. Assay reagent: 8 ng/μL (final concentration) AlphaScreen protein A acceptor beads, 8 ng/μL AlphaScreen streptavidin donor beads, 1:1000 diluted acetylated-lysine antibody, and 100 μM anacardic acid; prepared in buffer 2.
2. Experimental Procedure
a. The prepared compound solutions were added to a 384-well plate at 2 μL/well, and 2 μL of buffer 2 (containing 0.04% DMSO) was added to each Min well and each Max well as controls. The plate was centrifuged.
b. The prepared enzyme solution was added at 2 μL/well, and 2 μL of buffer 2 was added to each Min well. The plate was centrifuged, shaken for 2 min, and incubated at room temperature for 10 min.
c. The mixed substrate of Ac-CoA and H3 was added at 4 μL/well, and the plate was centrifuged, shaken for 2 min, and incubated at room temperature for 120 min.
d. The assay reagent was added at 4 μL/well, and the plate was centrifuged, shaken for 2 min, and incubated in the dark at room temperature for 120 min.
e. Plate reading was performed on the microplate reader, and AlphaScreen counts were recorded.
f. Dose-response curves were plotted using log(inhibitor) vs. response of the graphpad prism software, with the abscissa representing the logarithm of the compound concentration and the ordinate representing the calculated enzyme activity inhibition rate, and IC50 values were calculated.

[2] = tested on: ZR-75-1; assay: ZR-75-1 proliferation assay (CellTiter-Glo, day 14); format: cell-based; details: Homo sapiens, 336 h, CTG assay day 14; for IC50: ZR-75-1 proliferation; for Emax: inhibition of ZR-75-1 proliferation, read-out: Maximum inhibition rate/Imax %
Text: Test Example 4: ZR-75-1 Proliferation Assay
I. Reagents and Instruments
• 1. ZR-75-1 (ATCC CRL1500) • 2. 1640 medium (Gibco, 22400-089) • 3. 0.25% trypsin-EDTA (1×) (Gibco, 25200-072) • 4. Penicillin-streptomycin (Gibco, 15140-122) • 5. DPBS (1×) (Gibco, 14190-144) • 6. FBS (Gibco, 10091148) • 7. Assay plate, 96-well, black with clear bottom (Corning, 3603) • 8. 96-well non-treated round-bottom plate (JET BIOFIL, TCP-002-096) • 9. CellTiter-Glo buffer (Promega, G756B) • 10. CellTiter-Glo substrate (Promega, G755B) • 11. Automatic cell counter (Countstar, IC1000) • 12. Thermostatic incubator (Thermo, 1160) • 13. PHERAstar FS (BMG labtech, PHERAstar FS)
a. The state of cells was observed under a microscope to make sure that the cell confluence was about 90%.
b. The cell supernatant was discarded. The cells were rinsed with DPBS once, and the DPBS was removed. The cells were digested with a proper amount of trypsin and left to stand at 37° C. for 5 min.
c. The digestion was stopped with an equal volume of 1640 medium containing 10% FBS, and the cell suspension was collected and centrifuged at 300 g for 3 min. The cells were suspended in a proper amount of fresh medium.
d. The resulting cell suspension was collected and cell counting was performed.
e. The cell suspension was diluted to 5×10^4/mL, 50 μL/well with 1640 medium containing 10% FBS. Each well contained 2500 ZR-75-1 cells.
f. The cell culture plates were incubated overnight in a 37° C., 5% carbon dioxide incubator.
2. Compound Addition (Day 1)
a. Each compound was serially diluted in DMSO to 9 concentration points (initial concentration of 100 μM, 3-fold dilution; the highest concentration of each compound may be adjusted depending on its IC50). For example, in a 96-well non-treated round-bottom plate, 3 μL of compound was serially diluted in 6 μL of DMSO.
b. Each concentration point of each compound was diluted 500-fold in the corresponding volume of 1640 medium.
c. 50 μL of diluted compound solution was added to the cell supernatant (50 μL/well) in each cell plate.
d. After the addition, the cell plates were incubated in a 37° C., 5% carbon dioxide incubator.
3. The Cells were Re-Digested and Plated, and the Compounds were Added (Day 7).
a. Six days after the addition, the compound-containing medium was discarded. Then the cells were rinsed with DPBS (150 μL/well), and the DPBS was immediately pipetted off.
b. The cells were digested with 50 μL of trypsin and left to stand at 37° C. for 3 min, and then the digestion was stopped with 1640 medium containing 10% FBS (150 μL/well).
c. The cells were well mixed using a pipette and re-plated at a ratio of 1:8; that is, 25 μL of cell suspension was pipetted into a new 96-well plate (25 μL of 1640 medium containing 10% FBS had been added to the new plate in advance).
d. Compound solution preparation and addition (50 μL/well) were performed according to steps a to c in 2.
e. After the addition, the cell plates were incubated in a 37° C., 5% carbon dioxide incubator.
a. CellTiter-Glo buffer and lyophilized CellTiter-Glo substrate were equilibrated to room temperature before use and were well mixed to prepare a 100-mL CellTiter-Glo reagent (or a prepared CellTiter-Glo reagent was removed from a −20° C. freezer and equilibrated to room temperature).
b. The plates to be tested were removed from the incubator and equilibrated to room temperature, and the CellTiter-Glo reagent was added at 50 μL/well.
c. The plates were shaken for 2 min so that the cells were completely lysed.
d. After the plates were left to stand at room temperature for 28 min and signals were stable, the plates were tested on PHERAstar FS.

human KAT6B, sequence (Q8WYB5 718-1008): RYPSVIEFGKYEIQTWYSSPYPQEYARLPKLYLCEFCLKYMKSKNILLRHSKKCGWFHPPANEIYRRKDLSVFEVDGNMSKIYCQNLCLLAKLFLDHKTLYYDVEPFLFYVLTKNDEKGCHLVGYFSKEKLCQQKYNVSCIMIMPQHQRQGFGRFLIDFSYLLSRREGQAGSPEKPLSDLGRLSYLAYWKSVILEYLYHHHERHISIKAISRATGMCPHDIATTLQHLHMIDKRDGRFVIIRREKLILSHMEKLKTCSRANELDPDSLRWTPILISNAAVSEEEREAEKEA

| IC50 [1] | Compound | IC50 [2] | Emax [2] |
| --- | --- | --- | --- |
| 1.1 nM | COc1cccc(OC)c1S(=O)(=O)Nc1noc2cc(Cn3cccn3)c3c(c12)OCC3 [Compound 1, N-(4-((1H-pyrazol-1-yl)methyl)-2,3-dihydrobenzofuro[7,6-d]isoxazol-8-yl)-2,6-dimethoxybenzenesulfonamide] | 1.4 nM | 96% |
| 0.7 nM | COc1cccc(OC)c1S(=O)(=O)Nc1noc2cc(Cn3cccn3)c3c(c12)OCCC3 [Compound 2, N-(5-((1H-pyrazol-1-yl)methyl)-3,4-dihydro-2H-chromeno[8,7-d]isoxazol-9-yl)-2,6-dimethoxybenzenesulfonamide] | 0.4 nM | 96% |
| 1.4 nM | COc1ccccc1S(=O)(=O)Nc1noc2cc(Cn3cccn3)c3c(c12)OCCC3 [Compound 3, N-(5-((1H-pyrazol-1-yl)methyl)-3,4-dihydro-2H-chromeno[8,7-d]isoxazol-9-yl)-2-methoxybenzenesulfonamide] | 1.9 nM | 95% |
| 1.5 nM | COc1cccc(OC)c1S(=O)(=O)Nc1noc2cc(Cn3cccn3)c3c(c12)OC(F)(F)O3 [Compound 5, N-(4-((1H-pyrazol-1-yl)methyl)-2,2-difluoro-[1,3]dioxolo[4′,5′:5,6]benzo[1,2-d]isoxazol-8-yl)-2,6-dimethoxybenzenesulfonamide] | 0.9 nM | 98% |
|  | CCOc1cc(C)ccc1S(=O)(=O)Nc1noc2cc(Cn3cccn3)c3c(c12)OCCC3 [Compound 7, N-(5-((1H-pyrazol-1-yl)methyl)-3,4-dihydro-2H-chromeno[8,7-d]isoxazol-9-yl)-2-ethoxy-4-methylbenzenesulfonamide] | 1.6 nM | 95.6% |
|  | Cc1ccc(S(=O)(=O)Nc2noc3cc(Cn4cccn4)c4c(c23)OCCC4)c(OCC(F)(F)F)c1 [Compound 8, N-(5-((1H-pyrazol-1-yl)methyl)-3,4-dihydro-2H-chromeno[8,7-d]isoxazol-9-yl)-4-methyl-2-(2,2,2-trifluoroethoxy)benzenesulfonamide] | 2.6 nM | 96.3% |
|  | COc1ccc(F)cc1S(=O)(=O)Nc1noc2cc(Cn3cccn3)c3c(c12)OCCC3 [Compound 9, N-(5-((1H-pyrazol-1-yl)methyl)-3,4-dihydro-2H-chromeno[8,7-d]isoxazol-9-yl)-5-fluoro-2-methoxybenzenesulfonamide] | 1.6 nM | 96.2% |
|  | COc1cccc(OC(F)(F)F)c1S(=O)(=O)Nc1noc2cc(Cn3cccn3)c3c(c12)OCCC3 [Compound 10, N-(5-((1H-pyrazol-1-yl)methyl)-3,4-dihydro-2H-chromeno[8,7-d]isoxazol-9-yl)-2-methoxy-6-(trifluoromethoxy)benzenesulfonamide] | 2.95 nM | 94.1% |
|  | COc1ccccc1S(=O)(=O)Nc1noc2cc(Cn3cccn3)c3c(c12)OCC3 [Compound 20, N-(4-((1H-pyrazol-1-yl)methyl)-2,3-dihydrobenzofuro[7,6-d]isoxazol-8-yl)-2-methoxybenzenesulfonamide] | 8.6 nM | 94.9% |
|  | COc1cccc(OC(F)(F)F)c1S(=O)(=O)Nc1noc2cc(Cn3cccn3)c3c(c12)OCC3 [Compound 23, N-(4-((1H-pyrazol-1-yl)methyl)-2,3-dihydrobenzofuro[7,6-d]isoxazol-8-yl)-2-methoxy-6-(trifluoromethoxy)benzenesulfonamide] | 10.9 nM | 90.8% |
